Here are results for 10 molecules from US20040110770A1, “Oxindoles which are inhibitors of CDK-1 and their application in therapeutics” (AVENTIS PHARMA SA, priority 2001, published 2004).

SMILES strings stand for the structures. Like-named read-outs stand apart in the source and are kept apart here.

Assay [1] concerns p34cdc2/cyclin B (CDK1/cyclin B). Put plainly: Inhibition of the p34cdc2/cyclin B activity (32P transfer from ATP to histone H1). The class given is biochemical, starfish or human recombinant. How it is done:
The protein Histone H1 (type III-S) is obtained from Sigma. […] The reaction medium is prepared according to the following composition: 10 μl of enzymatic preparation are added to 5 μl of Histone H1 (5 mg/ml in buffer C) and to 7 μl of buffer C and mixed. 17.5 μl of the mixture are distributed in the tubes immediately before the test. 3 μl of inhibiting agent to be tested are added to each tube. The reaction is begun by the addition of 5 μl of the ATP solution, followed by incubating for 15 minutes at 30° C. The reaction is halted by the addition of 0.5 volumes of Laemli 3× buffer. […] The analysis and the quantification of the phosphorylation of the Histone H1 are carried out using an Instant-Imager device (Packard).

Assay [2] concerns HCT-116 cells. Conditions: HCT-116, 1 μg/ml. As for the experimental part:
The HCT-116 cells are seeded in Nunc 6-well dishes.
The cells are treated with 30 μM BrDU for 30 minutes and then trypsinized. After fixing the cells in 1% paraformaldehyde for 16 hours, the latter are digested in pepsin/hydrochloric acid and then rinsed in PBS 1×. Immunolabelling is carried out with an anti-BrDU primary antibody (Becton Dickinson) and a GAM-FITC secondary antibody (Coulter). The DNA is subsequently labelled with propidium iodide in PBS comprising 1 mg/ml of boiled RNAse. This method makes it possible to count the cells in the G1, S and G2M phases.

In assay [3] the test system is HCT-116 cells. Briefly: cells. As to conditions: Homo sapiens, HCT-116, 96 h, read-out: HCT-116 IC50 (inhibition of proliferation).
Experimental: The HCT-116 cells are cultured as a layer in a culture flask in Dulbecco's medium comprising L-glutamine 2 mM, penicillin 200 U/ml, streptomycin 2 μg/ml, with the addition of 10% of heat-inactivated foetal calf serum.
The incorporation of the dye in the cell, which reflects cell growth, is evaluated by spectrophotometry at a wavelength of 540 nm for each sample using a Dynatech MR5000 reading device.
For each compound concentration tested, the results are expressed as percentage of inhibition of cell growth and are calculated from the untreated control and from the cell-free (blank) culture medium according to the following formula:
(Value compound−value blank/value cell control−value blank)×100.
Another assay has as its system HCT-8 cells. As to conditions: HCT-8, 48 hours. As for the experimental part: The percentage of mitotic cells and of cells having apoptotic nuclear bodies is determined by examination and counting of a sample of at least 300 cells distributed over several points of the slide using a fluorescent microscope.
The subject of the next assay is HCT-116. Briefly: cells. As to conditions: Homo sapiens, HCT-116, 288 h, read-out: IC50 inhibition of clonogenicity. As for the experimental part:
(§1) The Calc18 human tumour line is a gift from Professor G. Riou (Institut Gustave Roussy, Villejuif, France).
(§2) The cells in exponential growth phase are trypsinized, washed in PBS 1× and diluted to a final concentration of 5000 cells/ml in complete medium. The test products (in a volume of 50 μl) are added to 2.5 ml of suspension. […] The mixture is then immediately poured into Petri dishes and left at +4° C. for 5 minutes to solidify the agar.
(§3) The results are expressed as percentage of inhibition of the clonogenicity with respect to controls. The IC50 is determined graphically from the mean results determined for each concentration of compound.

A further assay concerns HLF. Briefly: cells. Conditions: Homo sapiens, 288 h, read-out: IC50 inhibition of clonogenicity. How it is done:
as §1, §2, §3

The next assay relates to HLE. Put plainly: cells. Conditions: Homo sapiens, 288 h, read-out: IC50 inhibition of clonogenicity. As for the experimental part: as §1, §2, §3
The subject of another assay is HT-29. Briefly: cells. As to conditions: Homo sapiens, HT-29, 288 h, read-out: IC50 inhibition of clonogenicity. How it is done: as §1, §2, §3
The subject of a further assay is PC-14. Briefly: cells. Conditions: Homo sapiens, PC-14, 288 h, read-out: IC50 inhibition of clonogenicity. As for the experimental part: as §1, §2, §3
Another assay concerns C6. Briefly: cells. As to conditions: Rattus norvegicus, C6, 288 h, read-out: IC50 inhibition of clonogenicity. How it is done:
as §1, §2, §3

For another assay, the system named is Calc18. Briefly: cells. As to conditions: Homo sapiens, 288 h, read-out: IC50 inhibition of clonogenicity. How it is done: as §1, §2, §3
In the next assay the test system is PC-3. Put plainly: cells. As to conditions: Homo sapiens, PC-3, 288 h, read-out: IC50 inhibition of clonogenicity. As for the experimental part: as §1, §2, §3
The test system of the next assay is Lovo. Put plainly: cells. As to conditions: Homo sapiens, 288 h, read-out: IC50 inhibition of clonogenicity. How it is done: as §1, §2, §3
In the next assay the test system is HCT-8. Put plainly: cells. As to conditions: Homo sapiens, HCT-8, 288 h, read-out: IC50 inhibition of clonogenicity. As for the experimental part:
as §1, §2, §3

As for `O=C1Nc2ccc([N+](=O)[O-])cc2C1=Cc1ccc[nH]1` [Compound 5-6], the “CDK1 % inhibition at 10 μM” value in assay [1] (10 μM) was determined as 91%.

For `Cc1nc[nH]c1C=C1C(=O)Nc2ccc(-c3cccnc3)cc21` [Compound 5-10], in [1] (10 μM), the “CDK1 % inhibition at 10 μM” value is 100%.

As to `Cc1nc[nH]c1C=C1C(=O)Nc2ccc(C(=O)O)cc21` [Compound 5-11], the “CDK1 % inhibition at 10 μM” value in assay [1] (10 μM) is recorded as 100%.

As for `Cc1nc[nH]c1C=C1C(=O)Nc2ccc(S(N)(=O)=O)cc21` [Compound 5-12], the “CDK1 % inhibition at 10 μM” value in assay [1] (10 μM) came out at 100%.

`O=C1Nc2ccc(Br)cc2C1=Cc1cnc[nH]1` [Compound 5-3]: the “CDK1 % inhibition at 10 μM” value in assay [1] (10 μM) turned out to be 100%.

As to `O=C1Nc2ccc(C(=O)c3cccs3)cc2C1=Cc1cnc[nH]1` [Compound 5-7], in assay [1] (10 μM), the “CDK1 % inhibition at 10 μM” value is on record as 100%.

With `CNC(=O)c1ccc2c(c1)C(=Cc1c[nH]cn1)C(=O)N2` [Compound 3, 1,3-dihydro-3-(imidazol-4-ylmethylene)-5-(N-methylcarboxamido)-2H-indolin-2-one], in [1] (10 μM), the “CDK1 % inhibition at 10 μM” value was found to be 100%.

With `O=C1Nc2ccc([N+](=O)[O-])cc2C1=Cc1cnc[nH]1` [Compound 5-8], the “CDK1 % inhibition at 10 μM” value in [1] (10 μM) was 81%.

Turning to `CC(=O)Nc1ccc2c(c1)C(=Cc1c[nH]cn1)C(=O)N2` [Compound 4, 1,3-dihydro-3-(imidazol-4-ylmethylene)-5-(acetylamino)-2H-indolin-2-one], in [1] (10 μM), the “CDK1 % inhibition at 10 μM” value is 100%.

In the case of `O=C1Nc2ccc(-c3cccnc3)cc2C1=Cc1cnc[nH]1` [Compound 1, 1,3-dihydro-3-(imidazol-4-ylmethylene)-5-(pyrid-3-yl)-2H-indolin-2-one], the “Cells in G1 phase (%)” value was found to be 62.2% in the assay with HCT-116 cells [2] (contact time 4 h), 26.8% in the assay with HCT-116 cells [2] (contact time 24 h), 7.9% in the assay on HCT-116 cells [2] (contact time 48 h) and 7.8% in the assay on HCT-116 cells [2] (contact time 72 h). Besides, the “Cells in G2-M phase (%)” value in the assay on HCT-116 cells [2] (contact time 4 h) came out at 16.4%; with HCT-116 cells [2] (contact time 24 h), 31.4%; in the assay on HCT-116 cells [2] (contact time 48 h), 58.9%. Besides, the “Cells in S phase (%)” value with HCT-116 cells [2] (contact time 4 h) is recorded as 20.1%; in the assay on HCT-116 cells [2] (contact time 24 h), 39.5%; in the assay on HCT-116 cells [2] (contact time 48 h), 30.9%; in the assay with HCT-116 cells [2] (contact time 72 h), 5.1%. The IC50 was found to be 280 nM with HCT-116 cells [3]; 280 nM in the assay with HCT-116; 1100 nM in the assay on HLF; 1200 nM with HLE; 1420 nM with HT-29; 1100 nM with PC-14. The IC50 with C6 is 10.8 µM; in the assay on Calc18, 1060 nM; with PC-3, 190 nM; in the assay with Lovo, 900 nM; in the assay on HCT-8, 1040 nM. For the same molecule, the “Apoptotic cells (%)” value in the assay with HCT-8 cells (0.1 μg/ml) was 8.5%; in the assay on HCT-8 cells (1 μg/ml), 16%; with HCT-8 cells (10 μg/ml) it was 42.5%. Further, the entries for the “Apoptotic cells Factor/control” value with HCT-8 cells (0.1 μg/ml), with HCT-8 cells (1 μg/ml) and in the assay with HCT-8 cells (10 μg/ml) were 3.5, 6.6 and 17.7, respectively. Also, the results for the “Mitotic cells (%)” value in the assay on HCT-8 cells (0.1 μg/ml), in the assay on HCT-8 cells (1 μg/ml) and with HCT-8 cells (10 μg/ml) were 2.8%, 0.7% and 0.4%, respectively. In addition, the entries for the “Mitotic cells Factor/control” value in the assay on HCT-8 cells (0.1 μg/ml), in the assay on HCT-8 cells (1 μg/ml) and with HCT-8 cells (10 μg/ml) were 0.4, 0.1 and 0.06, respectively. Further, the “CDK1 % inhibition at 10 μM” value in assay [1] was 99%.
